Measured values from ChEMBL document CHEMBL4613236, “Magnoflorine from Coptis chinese has the potential to treat DNCB-induced Atopic dermatits by inhibiting apoptosis of keratinocyte” (Bioorg Med Chem, 2020).
Calls of active or inactive are those of the source. No cut-off for these calls is given here.

Legend:
HaCaT [1] = assay: Inhibition of TNF-alpha/IFN-gamma-induced apoptosis in human HaCaT cells after 24 hrs by Annexin V-FITC/propidium iodide double staining-based flow cytometry; type: functional, cell-based
HaCaT [2] = assay: Inhibition of TNF-alpha/IFN-gamma-induced apoptosis in human HaCaT cells assessed as apoptotic rate at 1500 ug/ml after 24 hrs by Annexin V-FITC/propidium iodide double staining-based flow cytometry (reference value: 42.9%); type: functional; design: scale not given: the % may be the effect or the level left
Mus musculus [3] = assay: Protection against DNCB-induced skin inflammation in BALB/c mouse model of atopic dermatitis assessed as reduction in skin erythema at 0.1 g/ml administered topically once daily for 16 days measured post last dose; type: functional, organism-based
Mus musculus [4] = assay: Protection against DNCB-induced skin inflammation in BALB/c mouse model of atopic dermatitis assessed as reduction in skin erosion at 0.1 g/ml administered topically once daily for 16 days measured post last dose; type: functional, organism-based
Mus musculus [5] = assay: Protection against DNCB-induced skin inflammation in BALB/c mouse model of atopic dermatitis assessed as reduction in skin dryness at 0.1 g/ml administered topically once daily for 16 days measured post last dose; type: functional, organism-based
Mus musculus [6] = assay: Protection against DNCB-induced skin inflammation in BALB/c mouse model of atopic dermatitis assessed as number of caspase-3 positive cells at 0.1 g/ml administered topically once daily for 16 days measured post last dose by […] based light microscopic analysis (reference value: 1054 +/- 74.9); type: functional
HaCaT [7] = assay: Inhibition of TNFalpha/IFN-gamma-induced apoptosis in human HaCaT cells assessed as change in mitochondrial membrane potential at 500 ug/ml after 24 hrs by DiOC6 probe based flow cytometric analysis (reference value: 15.36 +/- 0.76); type: functional
HaCaT [8] = assay: Inhibition of TNFalpha/IFN-gamma-induced apoptosis in human HaCaT cells assessed as increase in mitochondrial membrane potential after 24 hrs by DiOC6 probe based flow cytometric analysis; type: functional, cell-based
HaCaT [9] = assay: Inhibition of TNFalpha/IFN-gamma-induced apoptosis in human HaCaT cells assessed as rounded nuclei with sharp edges at 500 to 1500 ug/ml after 24 hrs by Hoechst staining based fluorescence microscopic analysis; type: functional, cell-based
HaCaT [10] = assay: Inhibition of TNFalpha/IFN-gamma-induced apoptosis in human HaCaT cells assessed as increase in Bid expression at 500 ug/ml after 24 hrs by Western blot analysis; type: functional, cell-based
HaCaT [11] = assay: Inhibition of TNFalpha/IFN-gamma-induced apoptosis in human HaCaT cells assessed as increase in cytochrome C expression at 500 ug/ml after 24 hrs by Western blot analysis; type: functional, cell-based
HaCaT [12] = assay: Inhibition of TNFalpha/IFN-gamma-induced apoptosis in human HaCaT cells assessed as increase in caspase 3 expression at 500 ug/ml after 24 hrs by Western blot analysis; type: functional, cell-based
HaCaT [13] = assay: Inhibition of TNFalpha/IFN-gamma-induced apoptosis in human HaCaT cells assessed as increase in caspase 7 expression at 500 ug/ml after 24 hrs by Western blot analysis; type: functional, cell-based
HaCaT [14] = assay: Inhibition of TNFalpha/IFN-gamma-induced apoptosis in human HaCaT cells assessed as increase in caspase 8 expression at 500 ug/ml after 24 hrs by Western blot analysis; type: functional, cell-based
HaCaT [15] = assay: Inhibition of TNFalpha/IFN-gamma-induced apoptosis in human HaCaT cells assessed as increase in caspase 9 expression at 500 ug/ml after 24 hrs by Western blot analysis; type: functional, cell-based
HaCaT [16] = assay: Inhibition of TNFalpha/IFN-gamma-induced apoptosis in human HaCaT cells assessed as increase in cathepsin B expression at 500 ug/ml after 24 hrs by Western blot analysis; type: functional, cell-based
HaCaT [17] = assay: Cytotoxicity against human HaCaT cells assessed as reduction in cell viability after 24 hrs by MTT assay; type: cell-based
[18] = Toxicity in DNCB-induced skin inflammation in BALB/c mouse model of atopic dermatitis assessed as effect on organs at 0.1 g/ml administered topically once daily for 16 days; settings: in vivo, topical_or_ocular, 384 h
Mus musculus [19] = assay: Protection against DNCB-induced skin inflammation in BALB/c mouse model of atopic dermatitis assessed as reduction in IgE level at 0.1 g/ml administered topically once daily for 16 days measured post last dose by ELISA; type: functional, organism-based
Mus musculus [20] = assay: Protection against DNCB-induced skin inflammation in BALB/c mouse model of atopic dermatitis assessed as reduction in IL4 level at 0.1 g/ml administered topically once daily for 16 days measured post last dose by ELISA; type: functional, organism-based
Mus musculus [21] = assay: Protection against DNCB-induced skin inflammation in BALB/c mouse model of atopic dermatitis assessed as reduction in spleen index at 0.1 g/ml administered topically once daily for 16 days measured post last dose; type: functional, organism-based
Mus musculus [22] = assay: Protection against DNCB-induced skin inflammation in BALB/c mouse model of atopic dermatitis assessed as reduction in dermal edema at 0.1 g/ml administered topically once daily for 16 days measured post last dose; type: functional, organism-based
Mus musculus [23] = assay: Protection against DNCB-induced skin inflammation in BALB/c mouse model of atopic dermatitis assessed as reduction in hair follicle disappearance at 0.1 g/ml administered topically once daily for 16 days measured post last dose; type: functional, organism-based
HaCaT [24] = assay: Induction of apoptosis in human HaCaT cells at 500 to 1500 ug/ml after 24 hrs by Hoechst staining based fluorescence microscopic analysis; type: cell-based

COc1ccc2c(c1O)-c1c(O)c(OC)cc3c1[C@H](C2)[N+](C)(C)CC3 [MAGNOFLORINE]
inhibition (HaCaT [1]): Dose-dependent effect
Activity (HaCaT [2]): 22.1%
Activity (Mus musculus [3]): Active
Activity (Mus musculus [4]): Active
Activity (Mus musculus [5]): Active
Activity (Mus musculus [6]): 509.8
Activity (HaCaT [7]): 12.66
inhibition (HaCaT [8]): Dose-dependent effect
inhibition (HaCaT [9]): Active
inhibition (HaCaT [10]): Active
inhibition (HaCaT [11]): Active
inhibition (HaCaT [12]): Active
inhibition (HaCaT [13]): Active
inhibition (HaCaT [14]): Active
inhibition (HaCaT [15]): Active
inhibition (HaCaT [16]): Active
Activity (HaCaT [17]): Non-Toxic
Activity [18]: Non-Toxic
Activity (Mus musculus [19]): Active
Activity (Mus musculus [20]): Active
Activity (Mus musculus [21]): Active
Activity (Mus musculus [22]): Active
Activity (Mus musculus [23]): Active
Activity (HaCaT [24]): Non-Toxic

COc1cc2c(cc1O)-c1cc3ccc(OC)c(OC)c3c[n+]1CC2 [COLUMBAMINE]
inhibition (HaCaT [1]): inactive
Activity (HaCaT [17]): Toxic

COc1cc2c(cc1O)CC[n+]1cc3c(OC)c(OC)ccc3cc1-2 [JATRORRHIZINE]
inhibition (HaCaT [1]): inactive
Activity (HaCaT [17]): Toxic

c1c2c(cc3c1OCO3)-c1cc3ccc4c(c3c[n+]1CC2)OCO4 [COPTISINE]
inhibition (HaCaT [1]): inactive
Activity (HaCaT [17]): Toxic

COc1cc2c(cc1OC)-c1cc3ccc4c(c3c[n+]1CC2)OCO4
inhibition (HaCaT [1]): inactive
Activity (HaCaT [17]): Toxic

COc1ccc2cc3[n+](cc2c1OC)CCc1cc2c(cc1-3)OCO2 [BERBERINE]
inhibition (HaCaT [1]): inactive
Activity (HaCaT [17]): Toxic

COc1cc2c(cc1OC)-c1cc3ccc(OC)c(OC)c3c[n+]1CC2 [PALMITINE]
inhibition (HaCaT [1]): inactive
Activity (HaCaT [17]): Toxic
